Measured values published in patent publication US6900308B2, “α-modified nucleoside triphosphates” (ISIS Pharmaceuticals, Inc., priority 2001, dated 2005).

How the values were obtained:
wild-type HIV RT = wild-type HIV RT (Human immunodeficiency virus type 1 group M subtype B, UniProt P04585); experiment: Inhibition of HIV-RT activity (RNA template t500 annealed to DNA primer pD500, [alpha-33P]-dATP incorporation); assay type: biochemical; settings: for inhibition at 10 µM: read-out: % I (10 μM), Inhibition of HIV-RT; for inhibition at 100 µM: read-out: % I (100 μM), Inhibition of HIV-RT
HCV NS5B RNA polymerase = biological target: T1, HCV NS5B RNA polymerase (Hepatitis C virus genotype 1b, UniProt P26663); experiment: Inhibition of HCV NS5B RNA-dependent RNA polymerase on heteromeric RNA template t500 (filter-binding, radiolabelled NTP); assay type: biochemical; settings: test concentration not given (compounds tested up to 100 μM); for % I (ATP), Percent Inhibition of HCV NS5B RNA polymerase: [alpha-32P]-ATP label; for % I (GTP), Percent Inhibition of HCV NS5B RNA polymerase: [alpha-32P]-GTP label
T1 construct: purified hepatitis C NS5B (form with 21 amino acids C-terminally truncated)
Method: This assay can be used to measure the ability of the nucleoside triphosphates of the present invention to inhibit the enzymatic activity of the RNA-dependent RNA polymerase (NS5B) of the hepatitis C virus (HCV) on a heteromeric RNA template.
The following describes assay buffer conditions: (50 μl-total/reaction) • 20 mM Tris, pH 7.5 • 50 μM EDTA • 5 mM DTT • 2 mM MgCl2 • 80 mM KCl • 0.4 U/μl RNAsin (Promega, stock is 40 units/μl) • 0.75 μg t500 (a 500 nt RNA made using T7 runoff transcription with a sequence from the NS2/3 region of the hepatitis C genome) • 1.6 μg purified hepatitis C NS5B (form with 21 amino acids C-terminally truncated) • 1 μM A, C, U, GTP (nucleoside triphosphate mix) • [alpha-^32P]-GTP or [alpha-^32P]-ATP The compounds were tested at various concentrations up to 100 μM final concentration.
An appropriate volume of reaction buffer was made including enzyme and template t500. Nucleoside derivatives of the present invention were pipetted into the wells of a 96-well plate. A mixture of nucleoside triphosphates (NTP's), including the radiolabeled GTP, was made and pipetted into the wells of a 96-well plate. The reaction was initiated by addition of the enzyme-template reaction solution and allowed to proceed at room temperature for 1-2 hours.
The reaction was quenched by addition of 20 μl 0.5 M EDTA, pH 8.0. Blank reactions in which the quench solution is added to the NTPs prior to the addition of the reaction buffer were included.
50 μL of the quenched reaction was spotted onto DE81 filter disks (Whatman) and allowed to dry for 30 minutes. The filters were washed with 0.3 M ammonium formate, pH 8 (150 mL/wash until the cpm in 1 mL wash is less than 100, usually 6 washes). The filters were counted in 5-mL scintillation fluid in a scintillation counter.
The percentage of inhibition is calculated according to the following equation: %Inhibition={1−(cpm in test reaction−cpm in blank)/(cpm in control reaction−cpm in blank)}×100.

T1 sequence (P26663 2420-2989): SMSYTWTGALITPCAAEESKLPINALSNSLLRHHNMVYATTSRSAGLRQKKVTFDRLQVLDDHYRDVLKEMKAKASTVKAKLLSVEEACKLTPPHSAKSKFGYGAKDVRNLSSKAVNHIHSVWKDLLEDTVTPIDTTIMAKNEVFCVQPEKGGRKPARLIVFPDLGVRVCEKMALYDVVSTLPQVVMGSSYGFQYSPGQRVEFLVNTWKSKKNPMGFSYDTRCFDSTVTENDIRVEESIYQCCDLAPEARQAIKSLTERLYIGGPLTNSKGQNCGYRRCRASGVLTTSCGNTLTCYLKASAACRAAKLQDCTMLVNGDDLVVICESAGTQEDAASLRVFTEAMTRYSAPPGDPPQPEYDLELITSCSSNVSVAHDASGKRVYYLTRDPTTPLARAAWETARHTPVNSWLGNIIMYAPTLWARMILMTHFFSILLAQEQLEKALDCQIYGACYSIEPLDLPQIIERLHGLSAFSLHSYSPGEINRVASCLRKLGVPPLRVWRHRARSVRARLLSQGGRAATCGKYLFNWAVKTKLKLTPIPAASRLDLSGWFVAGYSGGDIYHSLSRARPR

Row | Compound | inhibition at 10 µM (wild-type HIV RT) | inhibition at 100 µM (wild-type HIV RT) | % I (ATP), Percent Inhibition of HCV NS5B RNA polymerase (HCV NS5B RNA polymerase) | % I (GTP), Percent Inhibition of HCV NS5B RNA polymerase (HCV NS5B RNA polymerase)
1 | COc1cc(CN)cc(OC)c1 [compound 10] | -6.41% | -11.9% | – | –
2 | 2′-Deoxythymidine-5′-(α-P-(amino triphosphate) [compound 17 of Table 2] | – | – | 0.1% | −6%
3 | NCC1COCCOCCOCCOCCO1 (stereo not shown) [compound 11] | 5.37% | -17.2% | – | –
4 | NCc1ccc(-c2ccccc2)cc1 [compound 14] | -2.25% | -12.9% | – | –
5 | 2′-O-Methyl guanosine-5′-(α-P-(N-butyl)triphosphate) [compound 23 of Table 2] | – | – | 90% | 91%
